Patent US10316371B2, “Screening methods for identifying specific Staphylococcus aureus inhibitors” (TRANA DISCOVERY, INC., priority 2011, dated 2019)
In brackets after ≈: the same amount, converted by molar mass. Read-outs that look alike come from different tables or passages of the source.

Legend:
Type in all cases: cell-based
E. faecalis 161651 = test: MIC; conditions: Enterococcus faecalis; E. faecalis 161651; read-out: MIC
Method: (§1) The compounds were re-tested against other bacteria, including Staphylococcus epidermidis (ATCC 35984), Staphylococcus epidermidis (MRSE), E. faecium 134529, E. faecium 145494, […], E. faecium 161651, S. pneumoniae 49619, and S. pneumoniae 149389.
(§2) A series of compounds were evaluated for their activity against drug resistant S. aureus, including MSSA and MRSA strains.

E. faecalis 29212 = test: MIC; conditions: Enterococcus faecalis; E. faecalis 29212; read-out: MIC
Method: as §1, §2

E. faecium 134529 = test: MIC; conditions: Enterococcus faecium; E. faecium 134529; read-out: MIC
Method: as §1, §2

E. faecium 145494 = test: MIC; conditions: Enterococcus faecium; E. faecium 145494; read-out: MIC
Method: as §1, §2

S. epidermidis 35984 = test: MIC; conditions: Staphylococcus epidermidis; S. epidermidis 35984; read-out: MIC
Method: as §1, §2

S. epidermidis MRSE 01 = test: MIC; conditions: Staphylococcus epidermidis; S. epidermidis MRSE 01; read-out: MIC
Method: as §1, §2

S. pneumoniae 149389 = test: MIC; conditions: Streptococcus pneumoniae; S. pneumoniae 149389; read-out: MIC
Method: as §1, §2

S. pneumoniae 49619 = test: MIC; conditions: Streptococcus pneumoniae; S. pneumoniae 49619; read-out: MIC
Method: as §1, §2

E. coli 25922 = test: MIC; conditions: Escherichia coli; E. coli 25922; read-out: MIC
E. coli ESBL 4 = test: MIC; conditions: Escherichia coli, ESBL4; E. coli ESBL 4; read-out: MIC
K. pneumoniae 700603 = test: MIC; conditions: Klebsiella pneumoniae; K. pneumoniae 700603; read-out: MIC
K. pneumoniae UMM = test: MIC; conditions: Klebsiella pneumoniae; K. pneumoniae UMM; read-out: MIC
Mammalian Cell Toxicity [1] = conditions: human, MRC5 cells
Mammalian Cell Toxicity [2] = conditions: mouse, 3T3 cells
S. aureus ATCC 29213 = test: Resistance passaging experiment; conditions: Staphylococcus aureus
Method: Two compounds (#880 and #169) were tested in time-kill assays against S. aureus strain 29213. These compounds were then used to attempt to select for resistant variants by passaging at sub-MIC concentrations for 20 passages.
The selected strain for this experiment was S. aureus ATCC 29213. A frozen glycerol stock was streaked onto MH-II agar and grown overnight at 37° C. The next day, 3-5 colonies were picked and grown in 3 mL of MH-II broth at 37° C. with 200 rpm shaking for approximately 4 hours. A 2-fold microdilution (in round-bottom, 96-well plates) was made for each compound being tested. CLSI guidelines for broth microdilution were followed. Using the bacteria grown from the overnight colonies, each microdilution was inoculated at a final concentration of 5×10^5 colony forming units (CFU)/mL. The microdilutions were incubated at 37° C. for 16 to 20 hours, after which the minimal inhibitory concentration (MIC) of each was read visually. The MIC is defined as the lowest concentration of compound resulting in no visible bacterial growth. This activity is recorded as the MIC at Passage 0. The contents of the well in the next dilution lower in concentration than the MIC (i.e., ½ the MIC) was mixed with a micropipette and 50 μL was transferred to 3 mL of fresh MH-II broth. This was grown at 37° C. with 200 rpm shaking for approximately 4 hours, at which time the sample was turbid. A 1 mL aliquot of this sample was added to a cryovial containing 300 μL of glycerol. This was marked as passage 1, vortexed, than placed in a −80° C. freezer for storage. The rest of the culture was adjusted to a bacterial concentration of 1×10^6cfu/mL (OD600 of 0.004), which was then used to inoculate a microdilution of the same compound (final bacterial concentration of 5×10^5 cfu/mL). This was incubated at 37° C. for 16 to 20 hours. After that time the MIC was once again read and recorded as the MIC at Passage 1. This process was repeated through 20 passages. Ciprofloxacin was included as a control and an untreated sample was also passaged 20 times as a negative control.

[3] = system: Staphylococcus aureus strains (ATCC 33591, USA300, 158, 22, 2, ATCC 29213, 182); test: MIC screening of lead compounds against S. aureus strains; conditions: including vancomycin and methicillin resistant strains
Excerpt: A series of lead compounds identified in the in vitro screening were subjected to in vivo screening, to determine their effectiveness against S. aureus. The strains included Staphylococcus aureus, Methicillin Resistant (ATCC 33591), Methicillin-Resistant Staphylococcus aureus USA300, Staphylococcus aureus 158, Staphylococcus aureus 22, Staphylococcus aureus 2, Staphylococcus aureus (ATCC 29213), and Staphylococcus aureus 182.

[4] = system: non-S. aureus bacterial strains (Staph epi, E. faecium, E. faecalis, S. pneumoniae); test: Re-test against other bacteria; conditions: Gm (+) organisms (e.g. Staph epi, E. faecium and E. faecalis)
Excerpt: as §1
In some cases, the compounds were as active, or nearly so, against the non-S. aureus bacterial strains. While not wishing to be bound to a particular theory, it is believed that these compounds function by stabilizing or inhibiting the complex between the mRNA Shine-Dalgarno sequence, and the anti-Shine Delgarno sequence in the ribosome, and inhibit protein translation in this manner, rather than by inhibiting the ASL Arg, and the codon encoding arginine (AGA), which is specific to S. aureus.

[5] = ATCC29213, read-out: MIC in S. aureus 29213, Passage 14, passaged at sub-MIC
[6] = ATCC29213, read-out: MIC in S. aureus 29213, Passage 15, passaged at sub-MIC
[7] = ATCC29213, read-out: MIC in S. aureus 29213, Passage 16, passaged at sub-MIC
[8] = ATCC29213, read-out: MIC in S. aureus 29213, Passage 17, passaged at sub-MIC
[9] = ATCC29213, read-out: MIC in S. aureus 29213, Passage 18, passaged at sub-MIC
[10] = ATCC29213, read-out: MIC in S. aureus 29213, Passage 19, passaged at sub-MIC
[11] = ATCC29213, read-out: MIC in S. aureus 29213, Passage 20, passaged at sub-MIC
[12] = ATCC29213, read-out: MIC in S. aureus 29213, second Passage 20 line of Table 4 (untreated culture passaged 20 times)

| Compound | MIC (E. faecalis 161651) | MIC (E. faecalis 29212) | MIC (E. faecium 134529) | MIC (E. faecium 145494) | MIC (S. epidermidis 35984) | MIC (S. epidermidis MRSE 01) | MIC (S. pneumoniae 149389) | MIC (S. pneumoniae 49619) | MIC (E. coli 25922) | MIC (E. coli ESBL 4) | MIC (K. pneumoniae 700603) | MIC (K. pneumoniae UMM) | CC50 (Mammalian Cell Toxicity [1]) | CC50 (Mammalian Cell Toxicity [2]) | MIC (S. aureus ATCC 29213; [5]) | MIC (S. aureus ATCC 29213; [6]) | MIC (S. aureus ATCC 29213; [7]) | MIC (S. aureus ATCC 29213; [8]) | MIC (S. aureus ATCC 29213; [9]) | MIC (S. aureus ATCC 29213; [10]) | also measured |
| --- | --- | --- | --- | --- | --- | --- | --- | --- | --- | --- | --- | --- | --- | --- | --- | --- | --- | --- | --- | --- | --- |
| Brc1ccc(-c2nc(N3CCNCC3)c3ccccc3n2)cc1 [Compound #880, 2-(4-bromophenyl)-4-(1-piperazinyl)-quinazoline] | 8 µg/mL (≈ 21.7 µM) | 8 µg/mL (≈ 21.7 µM) | 8 µg/mL (≈ 21.7 µM) | 4 µg/mL (≈ 10.8 µM) | 8 µg/mL (≈ 21.7 µM) | 8 µg/mL (≈ 21.7 µM) | 32 µg/mL (≈ 86.7 µM) | 32 µg/mL (≈ 86.7 µM) | 64 µg/mL (≈ 173 µM) | 64 µg/mL (≈ 173 µM) | > 128 µg/mL | > 128 µg/mL | 2.18 µg/mL (≈ 5.9 µM) | 2.11 µg/mL (≈ 5.71 µM) | 16 µg/mL (≈ 43.3 µM) | 16 µg/mL (≈ 43.3 µM) | 16 µg/mL (≈ 43.3 µM) | 16 µg/mL (≈ 43.3 µM) | 16 µg/mL (≈ 43.3 µM) | 32 µg/mL (≈ 86.7 µM) | MIC (S. aureus ATCC 29213; ATCC29213, read-out: MIC in S. aureus 29213, Passage 8, passaged at sub-MIC): 16 µg/mL (≈ 43.3 µM); MIC (S. aureus ATCC 29213; ATCC29213, read-out: MIC in S. aureus 29213, Passage 10, passaged at sub-MIC): 16 µg/mL (≈ 43.3 µM); MIC (S. aureus ATCC 29213; ATCC29213, read-out: MIC in S. aureus 29213, Passage 11, passaged at sub-MIC): 16 µg/mL (≈ 43.3 µM); MIC (S. aureus ATCC 29213; ATCC29213, read-out: MIC in S. aureus 29213, Passage 12, passaged at sub-MIC): 16 µg/mL (≈ 43.3 µM); MIC (S. aureus ATCC 29213; ATCC29213, read-out: MIC in S. aureus 29213, Passage 13, passaged at sub-MIC): 16 µg/mL (≈ 43.3 µM); MIC (S. aureus ATCC 29213; [11]): 32 µg/mL (≈ 86.7 µM); MIC (S. aureus ATCC 29213; [12]): 16 µg/mL (≈ 43.3 µM); activity on types of S. aureus [3]: showed activity on all types of S. aureus; spectrum of activity [4]: broad spectrum for Gm (+) organisms |
| Cc1ccc2nc(-c3ccc(NC(=O)CN4CCN(CCO)CC4)cc3)sc2c1 [Compound #169, 2-[4-(2-hydroxyethyl)-1-piperazinyl]-N-[4-(6-methyl-1,3-benzothiazol-2-yl)phenyl]acetamide] | 16 µg/mL (≈ 39 µM) | 64 µg/mL (≈ 156 µM) | 16 µg/mL (≈ 39 µM) | 16 µg/mL (≈ 39 µM) | 16 µg/mL (≈ 39 µM) | 16 µg/mL (≈ 39 µM) | 128 µg/mL (≈ 312 µM) | 64 µg/mL (≈ 156 µM) | > 128 µg/mL | > 128 µg/mL | > 128 µg/mL | > 128 µg/mL | < 2 µg/mL | < 2 µg/mL | 32 µg/mL (≈ 77.9 µM) | 32 µg/mL (≈ 77.9 µM) | 32 µg/mL (≈ 77.9 µM) | 32 µg/mL (≈ 77.9 µM) | 32 µg/mL (≈ 77.9 µM) | 32 µg/mL (≈ 77.9 µM) | MIC (S. aureus ATCC 29213; ATCC29213, read-out: MIC in S. aureus 29213, Passage 4, passaged at sub-MIC): 32 µg/mL (≈ 77.9 µM); MIC (S. aureus ATCC 29213; [11]): 32 µg/mL (≈ 77.9 µM); MIC (S. aureus ATCC 29213; [12]): 32 µg/mL (≈ 77.9 µM); activity on types of S. aureus [3]: showed activity on all types of S. aureus; spectrum of activity [4]: broad spectrum for Gm (+) organisms |
